Values of other authors, collected in patent publication US5358942A, “Inhibition of protein kinase C with Cyclic phosphonate compounds” (Louisiana State University, priority 1993, dated 1994).

Tested on: carnitine palmitoyltransferase (CPT)

## CCCCCCCCCCCCCCC[C@@]1(O)C[N+](C)(C)C[C@H](CC(=O)O)O1.[Br-] [Hemipalmitoyl carnitinium (HPC), Hemipalmitoyl carnitinium]
  inhibition of carnitine palmitoyltransferase (CPT): potently inhibits
